Results on 30 molecules are retold here after patent US9951065B2 (Gilead Sciences, Inc., priority 2015, dated 2018).

In this test the target is T1, IDO1 (Homo sapiens, UniProt P14902).
T1 construct: HeLa cells were treated with a test compound in the presence of IFNγ, which induces IDO1 expression; host or cells: H1-HeLa cells, IDO1 induced with IFNγ
T1 sequence (P14902 whole entry): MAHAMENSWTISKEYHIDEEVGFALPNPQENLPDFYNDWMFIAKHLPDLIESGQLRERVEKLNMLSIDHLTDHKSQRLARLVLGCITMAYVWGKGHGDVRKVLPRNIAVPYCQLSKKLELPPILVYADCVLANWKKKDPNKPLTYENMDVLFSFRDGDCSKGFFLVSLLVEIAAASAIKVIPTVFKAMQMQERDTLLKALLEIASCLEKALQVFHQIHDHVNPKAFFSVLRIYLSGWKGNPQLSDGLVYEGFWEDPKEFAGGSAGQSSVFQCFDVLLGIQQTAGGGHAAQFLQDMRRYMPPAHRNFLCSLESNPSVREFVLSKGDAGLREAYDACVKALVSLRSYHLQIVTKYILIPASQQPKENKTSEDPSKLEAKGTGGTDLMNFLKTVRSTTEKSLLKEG
Nature of the test: Cell-based (HeLa) assay for measurement of IDO1 inhibition (kynurenine levels in supernatant after IFNγ induction). To be noted: HeLa cells, IFNγ-induced IDO1, kynurenine in supernatant, 48 hour incubation; geometric mean of a minimum of four determinations. The method in brief: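 HeLa cells, 1,250 per well, treated with compound (0.5% DMSO final) plus IFNγ to induce IDO1, for 48 h. Supernatant kynurenine measured by TCA hydrolysis at 60 °C, then p-dimethylaminobenzaldehyde, absorbance 480 nm. EC50 from a four-parameter fit normalized to −/+IFNγ controls; geometric mean of at least four runs.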
As to `CNC(C)Cc1nc2nccc(/C(=N/O)Nc3ccc(F)c(Cl)c3)c2[nH]1` (stereo not drawn) [Example 327, N-(3-chloro-4-fluorophenyl)-N′-hydroxy-2-(2-(methylamino)propyl)-1H-imidazo[4,5-b]pyridine-7-carboximidamide], the EC50 came out at 7.62 µM.

In turn, `CC(Cc1nc2nccc(/C(=N/O)Nc3ccc(F)c(Cl)c3)c2[nH]1)N(C)C` (stereo not drawn) [Example 328, N-(3-chloro-4-fluorophenyl)-2-(2-(dimethylamino)propyl)-N′-hydroxy-1H-imidazo[4,5-b]pyridine-7-carboximidamide] gave an EC50 of 3.24 µM.

Turning to `O/N=C(\Nc1ccc(F)c(Cl)c1)c1ccnc2nc(CC3CCCN3)[nH]c12` (stereo not drawn) [Example 329, N-(3-chloro-4-fluorophenyl)-N′-hydroxy-2-(pyrrolidin-2-ylmethyl)-1H-imidazo[4,5-b]pyridine-7-carboximidamide], the EC50 was found to be 5 µM. Compared with the last molecule, the EC50 is about 1.5-fold higher.

`O/N=C(\Nc1cccc(Cl)c1)c1cc(F)c(F)c2nc(NCCN3CCCC3)[nH]c12` [Example 330, N-(3-chlorophenyl)-4,5-difluoro-N′-hydroxy-2-((2-(pyrrolidin-1-yl)ethyl)amino)-1H-benzo[d]imidazole-7-carboximidamide]: the EC50 came to 0.414 µM. Compared with the last molecule, the EC50 is about 12-fold lower.

Turning to `O/N=C(\Nc1cccc(Br)c1)c1cc(F)c(F)c2nc(NCCN3CCCC3)[nH]c12` [Example 331, N-(3-bromophenyl)-4,5-difluoro-N′-hydroxy-2-((2-(pyrrolidin-1-yl)ethyl)amino)-1H-benzo[d]imidazole-7-carboximidamide], the EC50 was 0.692 µM.

In turn, `NCCNc1nc2c(F)c(F)cc(/C(=N/O)Nc3ccc(F)c(Cl)c3)c2[nH]1` [Example 333, 2-((2-aminoethyl)amino)-N-(3-chloro-4-fluorophenyl)-4,5-difluoro-N′-hydroxy-1H-benzo[d]imidazole-7-carboximidamide] displayed an EC50 of 1.39 µM.

Take `CC(=O)NCCNc1nc2c(F)c(F)cc(/C(=N/O)Nc3ccc(F)c(Cl)c3)c2[nH]1` [Example 334, N-(2-((7-(N-(3-chloro-4-fluorophenyl)-N′-hydroxycarbamimidoyl)-4,5-difluoro-1H-benzo[d]imidazol-2-yl)amino)ethyl)acetamide]: it took 6.12 µM to reach a half-maximal effect (EC50). Compared with the last molecule, the EC50 is about 4.4-fold higher.

In the case of `CS(=O)(=O)NCCNc1nc2c(F)c(F)cc(/C(=N/O)Nc3ccc(F)c(Cl)c3)c2[nH]1` [Example 335, N-(3-chloro-4-fluorophenyl)-4,5-difluoro-N′-hydroxy-2-((2-(methylsulfonamido)ethyl)amino)-1H-benzo[d]imidazole-7-carboximidamide], the EC50 is greater than 10 µM.

Turning to `O=S(=O)(NCCNc1nc2c(F)c(F)cc(/C(=N/O)Nc3ccc(F)c(Cl)c3)c2[nH]1)C1CC1` [Example 336, N-(3-chloro-4-fluorophenyl)-2-((2-(cyclopropanesulfonamido)ethyl)amino)-4,5-difluoro-N′-hydroxy-1H-benzo[d]imidazole-7-carboximidamide], the EC50 was greater than 10 µM.

Regarding `COC(=O)NCCNc1nc2c(F)c(F)cc(/C(=N/O)Nc3ccc(F)c(Cl)c3)c2[nH]1` [Example 337, Methyl (2-((7-(N-(3-chloro-4-fluorophenyl)-N′-hydroxycarbamimidoyl)-4,5-difluoro-1H-benzo[d]imidazol-2-yl)amino)ethyl)carbamate], the midpoint of the response, the EC50, lay at 4.41 µM.

`NS(=O)(=O)NCCNc1nc2c(F)c(F)cc(/C(=N/O)Nc3ccc(F)c(Cl)c3)c2[nH]1` [Example 338, N-(3-chloro-4-fluorophenyl)-4,5-difluoro-N′-hydroxy-2-((2-(sulfamoylamino)ethyl)amino)-1H-benzo[d]imidazole-7-carboximidamide] gave an EC50 greater than 10 µM.

As for `O=S(=O)(NCCNc1nc2c(F)c(F)cc(/C(=N/O)Nc3ccc(F)c(Cl)c3)c2[nH]1)c1ccccc1` [Example 339, N-(3-chloro-4-fluorophenyl)-4,5-difluoro-N′-hydroxy-2-((2-(phenylsulfonamido)ethyl)amino)-1H-benzo[d]imidazole-7-carboximidamide], the EC50 was greater than 10 µM.

`N#CCCNc1nc2c(F)c(F)cc(/C(=N/O)Nc3ccc(F)c(Cl)c3)c2[nH]1` [Example 340, N-(3-chloro-4-fluorophenyl)-2-((2-cyanoethyl)amino)-4,5-difluoro-N′-hydroxy-1H-benzo[d]imidazole-7-carboximidamide] yielded an EC50 of 1.78 µM.

Consider `CCNC(=O)NCCNc1nc2c(F)c(F)cc(/C(=N/O)Nc3ccc(F)c(Cl)c3)c2[nH]1` [Example 341, N-(3-chloro-4-fluorophenyl)-2-((2-(3-ethylureido)ethyl)amino)-4,5-difluoro-N′-hydroxy-1H-benzo[d]imidazole-7-carboximidamide], for which the EC50 was greater than 10 µM.

Molecule `O/N=C(\Nc1ccc(F)c(Cl)c1)c1cc(F)c(F)c2nc(NCc3ccccn3)[nH]c12` [Example 342, N-(3-chloro-4-fluorophenyl)-4,5-difluoro-N′-hydroxy-2-((pyridin-2-ylmethyl)amino)-1H-benzo[d]imidazole-7-carboximidamide] registered an EC50 of 8.49 µM. This counts as single-digit micromolar.

For the molecule `O/N=C(\Nc1ccc(F)c(Cl)c1)c1cc(F)c(F)c2nc(NCc3cccnc3)[nH]c12` [Example 343, N-(3-chloro-4-fluorophenyl)-4,5-difluoro-N′-hydroxy-2-((pyridin-3-ylmethyl)amino)-1H-benzo[d]imidazole-7-carboximidamide], a half-maximal effect (EC50) was put at 3.86 µM.

With `Cn1ccnc1CCNc1nc2c(F)c(F)cc(/C(=N/O)Nc3ccc(F)c(Cl)c3)c2[nH]1` [Example 344], a half-maximal response (EC50) required 3.06 µM.

`ON=C(Nc1ccc(F)c(Cl)c1)c1cc(F)c(F)c2nc(NCc3ncc[nH]3)[nH]c12` [Example 345, 2-(((1H-imidazol-2-yl)methyl)amino)-N-(3-chloro-4-fluorophenyl)-4,5-difluoro-N′-hydroxy-1H-benzo[d]imidazole-7-carboximidamide] returned an EC50 of 3.84 µM.

For the molecule `ON=C(Nc1ccc(F)c(Cl)c1)c1cc(F)c(F)c2nc(Cl)[nH]c12` [Example 346, 2-chloro-N-(3-chloro-4-fluorophenyl)-4,5-difluoro-N′-hydroxy-1H-benzo[d]imidazole-7-carboximidamide], the midpoint of the response, the EC50, lay at 8.47 µM.

Turning to `Nc1ccccc1CNc1nc2c(F)c(F)cc(/C(=N/O)Nc3ccc(F)c(Cl)c3)c2[nH]1` [Example 347, 2-((2-aminobenzyl)amino)-N-(3-chloro-4-fluorophenyl)-4,5-difluoro-N′-hydroxy-1H-benzo[d]imidazole-7-carboximidamide], a half-maximal response (EC50) required 3.27 µM.

`CN(C)c1ccccc1CNc1nc2c(F)c(F)cc(/C(=N/O)Nc3ccc(F)c(Cl)c3)c2[nH]1` [Example 348, N-(3-chloro-4-fluorophenyl)-2-((2-(dimethylamino)benzyl)amino)-4,5-difluoro-N′-hydroxy-1H-benzo[d]imidazole-7-carboximidamide] had a half-maximal effective concentration (EC50) of 3.43 µM.

The molecule `Cn1ccnc1CNc1nc2c(F)c(F)cc(/C(=N/O)Nc3ccc(F)c(Cl)c3)c2[nH]1` [Example 349, N-(3-chloro-4-fluorophenyl)-4,5-difluoro-N′-hydroxy-2-(((1-methyl-1H-imidazol-2-yl)methyl)amino)-1H-benzo[d]imidazole-7-carboximidamide] came in with an EC50 of 2.54 µM. The EC50 values of the last two molecules are within 1.5-fold of each other.

`O/N=C(\Nc1ccc(F)c(Cl)c1)c1cc(F)c(F)c2nc(NCc3ncccn3)[nH]c12` [Example 350, N-(3-chloro-4-fluorophenyl)-4,5-difluoro-N′-hydroxy-2-((pyrimidin-2-ylmethyl)amino)-1H-benzo[d]imidazole-7-carboximidamide] returned a concentration for a half-maximal effect (EC50) of 7.03 µM. This EC50 lies about 2.8-fold higher than the previous one.

On to `CN(C)CC(C)(C)CNc1nc2c(F)c(F)cc(/C(=N/O)Nc3ccc(F)c(Cl)c3)c2[nH]1` [Example 351, N-(3-chloro-4-fluorophenyl)-2-((3-(dimethylamino)-2,2-dimethylpropyl)amino)-4,5-difluoro-N′-hydroxy-1H-benzo[d]imidazole-7-carboximidamide], for which the EC50 was 0.432 µM.

On to `CC(CNc1nc2c(F)c(F)cc(/C(=N/O)Nc3ccc(F)c(Cl)c3)c2[nH]1)CN(C)C` (stereo not drawn) [Example 352, N-(3-chloro-4-fluorophenyl)-2-((3-(dimethylamino)-2-methylpropyl)amino)-4,5-difluoro-N′-hydroxy-1H-benzo[d]imidazole-7-carboximidamide], for which the EC50 is 0.437 µM.

`CC(CCNc1nc2c(F)c(F)cc(/C(=N/O)Nc3ccc(F)c(Cl)c3)c2[nH]1)N(C)C` (stereo not drawn) [Example 353, N-(3-chloro-4-fluorophenyl)-2-((3-(dimethylamino)butyl)amino)-4,5-difluoro-N′-hydroxy-1H-benzo[d]imidazole-7-carboximidamide]: a half-maximal response (EC50) required 1.29 µM. This EC50 lies about 3-fold higher than the previous one.

`CN1CCCC1CCNc1nc2c(F)c(F)cc(/C(=N/O)Nc3ccc(F)c(Cl)c3)c2[nH]1` (stereo not drawn) [Example 354, N-(3-chloro-4-fluorophenyl)-4,5-difluoro-N′-hydroxy-2-((2-(1-methylpyrrolidin-2-yl)ethyl)amino)-1H-benzo[d]imidazole-7-carboximidamide]: the midpoint of the response, the EC50, lay at 1.21 µM.

`CN1CCCCC1CCNc1nc2c(F)c(F)cc(/C(=N/O)Nc3ccc(F)c(Cl)c3)c2[nH]1` (stereo not drawn) [Example 355, N-(3-chloro-4-fluorophenyl)-4,5-difluoro-N′-hydroxy-2-((2-(1-methylpiperidin-2-yl)ethyl)amino)-1H-benzo[d]imidazole-7-carboximidamide] gave an EC50 of 2.02 µM.

In turn, `CN1CCOC(CNc2nc3c(F)c(F)cc(/C(=N/O)Nc4ccc(F)c(Cl)c4)c3[nH]2)C1` (stereo not drawn) [Example 356, N-(3-chloro-4-fluorophenyl)-4,5-difluoro-N′-hydroxy-2-(((4-methylmorpholin-2-yl)methyl)amino)-1H-benzo[d]imidazole-7-carboximidamide] came in with a half-maximal effective concentration (EC50) of 3.26 µM.

As for `CN1CCOC(CNc2nc3nccc(/C(=N/O)Nc4ccc(F)c(Cl)c4)c3[nH]2)C1` (stereo not drawn) [Example 357, N-(3-chloro-4-fluorophenyl)-N′-hydroxy-2-(((4-methylmorpholin-2-yl)methyl)amino)-1H-imidazo[4,5-b]pyridine-7-carboximidamide], the response was half-maximal at 3.24 µM (EC50).

What is called EC50 is the concentration needed to bring the measured effect to its halfway point. Read a low EC50 as an effect from little substance.
